This note sets out measurements from ChEMBL document CHEMBL1127784, “Design and synthesis of peptidomimetic inhibitors of HIV-1 protease and renin. Evidence for improved transport” (J Med Chem, 1994).

In assay [1] the target is Human immunodeficiency virus type 1 protease (Human immunodeficiency virus 1, UniProt Q72874). Description: In vitro inhibitory concentration against HIV-1 protease.
The target of assay [2] is Human immunodeficiency virus type 1 protease (Human immunodeficiency virus 1) (UniProt Q72874). Description: Tested for the relative potency against HIV-1 protease in the cellular antiviral assay.
A further assay concerns the target T1, Renin (Homo sapiens, UniProt P00797).
T1 sequence (P00797 whole entry): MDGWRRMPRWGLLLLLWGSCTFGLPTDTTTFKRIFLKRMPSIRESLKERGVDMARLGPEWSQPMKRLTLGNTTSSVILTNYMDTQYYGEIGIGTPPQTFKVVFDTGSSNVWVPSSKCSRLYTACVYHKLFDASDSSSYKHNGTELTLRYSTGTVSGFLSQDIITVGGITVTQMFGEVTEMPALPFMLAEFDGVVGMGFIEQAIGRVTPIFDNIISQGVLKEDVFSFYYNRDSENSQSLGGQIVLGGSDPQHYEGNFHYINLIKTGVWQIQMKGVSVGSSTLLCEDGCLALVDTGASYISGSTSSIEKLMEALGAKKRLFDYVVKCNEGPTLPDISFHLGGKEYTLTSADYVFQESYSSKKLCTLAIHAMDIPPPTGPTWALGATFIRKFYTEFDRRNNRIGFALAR
Description: In vitro inhibitory concentration against renin.

As for `CC(C)C[C@@]1(C2=C(O)[C@](Cc3ccccc3)(C[C@H](O)[C@H](Cc3ccccc3)NC(=O)O[C@@H]3CCOC3)N=C2)N=CC([C@@H](Cc2ccccc2)C(N)=O)=C1O`, it took 0.0013 µM to reach half-maximal inhibition in assay [1] (IC50). Besides, the IC95 in assay [2] was found to be 0.8 µM.
Turning to `CC(C)C[C@@H](C(=O)N[C@@H](CC1CCCCC1)[C@@H](O)[C@@H](O)CC(C)C)C1=C(O)[C@@](CC(=O)N2CCOCC2)(Cc2ccccc2)N=C1`, the IC50 on Renin was found to be 0.6 µM.
As to `CC(C)C[C@@]1(C2=C(O)[C@](Cc3ccccc3)(C[C@H](O)[C@H](Cc3ccccc3)NC(=O)OC(C)(C)C)N=C2)N=CC([C@@H](Cc2ccccc2)C(N)=O)=C1O`, the IC50 in assay [1] turned out to be 0.01 µM. The same molecule had an IC95 in assay [2] of 1.5 µM.
Regarding `CC(C)C[C@H](O)[C@H](O)[C@H](CC1CCCCC1)C1=C(O)[C@](CC(C)C)(C2=C(O)[C@@](CC(=O)N3CCOCC3)(Cc3ccccc3)N=C2)N=C1`, the IC50 on Renin came to 18 µM.
Turning to `CC(C)C[C@H](NC(=O)[C@H](Cc1ccccc1)C[C@H](O)[C@H](Cc1ccccc1)NC(=O)OC(C)(C)C)C(=O)N[C@@H](Cc1ccccc1)C(N)=O`, the IC95 in assay [2] came out at 6 µM.
